Test results: patent US8900626B2, “Transdermal drug delivery system and method of using the same” (Senju USA, Inc., priority 2011, dated 2014)
Read-outs that look alike come from different tables or passages of the source.

Method: In vitro permeation study through hairless mouse skin to investigate the skin permeability of clobetasol propionate, amcinonide, betamethasone dipropionate, loteprednol etabonate, dexamethasone, prednisolone acetate and its metabolite (prednisolone).
Steroid patches were prepared according to the following procedure. The steroid (clobetasol propionate, amcinonide, betamethasone dipropionate, loteprednol etabonate, dexamethasone, or prednisolone acetate) was weighed in a clear polypropylene cup. 2 mL of ethyl acetate was added, and dispersed by ultrasonic wave using an ultrasonicator. DURO-TAK® 87-4098 was carefully added in the clear polypropylene cup. The components were mixed using a spatula, and then the lid of the cup was closed to avoid evaporation. A coating bar was adjusted to about 370 μm to control the thickness. The product material was carefully dispensed onto release liner near the coating bar. The coating process was started by moving the coating bar with the hand. The coated sheet was transferred to the oven and heated at 80° C. for 10±1 minutes. The dried sheet was removed from the oven, and laminated with the polyethylene terephthalate film. The thickness of the patch was checked.
The abdominal skin of 6 hairless, 8 week old, female mice were used for in vitro skin permeation experiment. (Horizontal cell, effective volume: 5 mL, effective area: 0.64 cm^2). […] The experimental temperature was controlled at 37° C., and 400 μL it of receptor solution was sampled at 1, 2, 3, 4, 5, 6, 9, 12, 22, 28, 34 and 48 hours. Thereafter, the same amount of the 40% polyethylene glycol 400 solution was added to the receptor cell. The concentration of each steroid in the sampled receptor solution was analyzed with HPLC.

[1] = female, hairless, mouse, 5 % (steroid in patch)

| lag-time, times shorter than dexamethasone [1] | lag-time, times shorter than prednisolone [1] | steady-state penetration rate, times higher than that of dexamethasone [1] | steady-state penetration rate, times higher than that of prednisolone [1] | Structure (SMILES) | lag-time, times shorter than dexamethasone | lag-time, times shorter than prednisolone | steady-state penetration rate, times higher than that of dexamethasone | steady-state penetration rate, times higher than that of prednisolone |
| --- | --- | --- | --- | --- | --- | --- | --- | --- |
| 4 times | 5 times | 10 times | 20 times | CC(=O)OCC(=O)[C@@]12OC3(CCCC3)O[C@@H]1C[C@H]1[C@@H]3CCC4=CC(=O)C=C[C@]4(C)[C@@]3(F)[C@@H](O)C[C@@]12C [amcinonide] | – | – | – | – |
| – | – | – | – | CCC(=O)OCC(=O)[C@@]1(OC(=O)CC)[C@@H](C)C[C@H]2[C@@H]3CCC4=CC(=O)C=C[C@]4(C)[C@@]3(F)[C@@H](O)C[C@@]21C [betamethasone, betamethasone dipropionate] | 3 times | 4 times | 3 times | 6 times |
| 6 times | 7 times | 8 times | 14 times | CCC(=O)O[C@]1(C(=O)CCl)[C@@H](C)C[C@H]2[C@@H]3CCC4=CC(=O)C=C[C@]4(C)[C@@]3(F)[C@@H](O)C[C@@]21C [clobetasol, clobetasol propionate] | – | – | – | – |
| 4 times | 5 times | 7 times | 12 times | CCOC(=O)O[C@]1(C(=O)OCCl)CC[C@H]2[C@@H]3CCC4=CC(=O)C=C[C@]4(C)[C@H]3[C@@H](O)C[C@@]21C [loteprednol, loteprednol etabonate] | – | – | – | – |
